The text below walks through data of paper PMC6557900 (Nature Communications, 2019).

For assay [1], the target named is T1, wild-type SBC (SOCS2-ElonginB-ElonginC) (Homo sapiens, UniProt O14508+Q15369+Q15370).
T1 construct: His6 (N, cleaved yes); made in house; host or cells: E. coli BL21(DE3)
Kind of assay: SPR direct binding, wild-type SBC immobilized on the chip. Particulars: mean ± s.e.m., four independent experiments. How it is done: (§1) Biotinylated wild-type SBC and mutants were immobilized onto a chip surface and injected a series of seven concentrations (0.08, 0.25, 0.7, 2.2, 6.7, 20 and 60 μM) of peptide across the sensor surface for 60 s contact time and 120 sec dissociation time at 30 μl min^−1 flow rate. Data analysis was carried out using Biacore Evaluation Software (GE Healthcare). All data were double-referenced for reference surface and blank injection. The processed sensograms were fit to a steady-state affinity using a 1:1 binding model for KD estimation (raw data shown in Supplementary Figs. 10–15).

For assay [2], the target named is SBC (SOCS2-ElonginB-ElonginC) (Homo sapiens, UniProt O14508+Q15369+Q15370). Kind of assay: 19F ligand-observed CPMG NMR displacement of spy molecule 3.
Excerpt: In the ^19F NMR displacement assay, the fluorine signal of a purposely-designed reporter ligand (also referred to as spy molecule) was monitored as a mean to quantify the extent of the competition between the tested peptides and the spy molecule. A Carr-Purcell-Meiboom-Gill (CPMG) pulse sequence was applied to estimate the spin–spin relaxation time (T2) of the spy molecule in the absence and presence of protein[43]–[45]. By adding competitor to disrupt the protein-spy interaction, the binding affinity of a competitor can be calculated based on the degree of displacement of the spy[46],[47].
All NMR experiments were conducted using AV-500 MHz Bruker spectrometer equipped with a 5 mm CPQCI 1H/19F/13C/15N/D Z-GRD cryoprobe) at 298 K. Spectra were recorded using 80 scans of a CPMG pulse sequence that attenuates broad resonances. […] The transmitter frequency was placed close to the resonance of O1 = −35451 Hz (−75.3 ppm). […] All NMR data were processed and analyzed using TopSpin (Bruker).
The dissociation constant of peptides (Ki) was calculated by adapting the method described by Wang et al.[47] Briefly, peptides’ Ki values were obtained from the equation below:1 Ki=([P0]-[PI]-[PL])([I0]-[PI])/[PI] where [I0] and [P0] are the total concentrations of the competitor (peptide inhibitor) and protein, respectively, used in the experiment, while [PI] and [PL] are the free concentrations of protein–peptide and protein–spy complexes, which are unknown.
To determine [PL] the following equation was used:2 IF-II/IF-IP=[PL]/[PL0] where IF is the measured integral of the fluorine peak of the spy molecule free in solution; IP is the integral of the same signal in the presence of protein; II is the integral of the same signal in the presence of protein and competing peptide; and [PL0] is the concentration of protein-spy complex in the absence of competitor, which was calculated using the following equation:3 [PL0]=[P0]+[L0]+KD-([P0]+[L0]+KD)^2-4[P0][L0]/2 where [L0] is the total concentrations of spy molecule used in the experiment, and KD is the dissociation constant of the protein-spy complex (determined by ITC). To determine [PI] the following equation was used: 4 [PL]=[P0]+[L0]+KD-[PI]-([P0]+[L0]+KD-[PI])^2-4([P0]-[PI])[L0]/2 where [PL] was determined as described above (Equation 2).
Assay [3] deals with T2, SBC with SOCS2 R96Q (Homo sapiens, UniProt O14508+Q15369+Q15370, R96Q).
T2 construct: His6 (N, cleaved yes); made in house; host or cells: E. coli BL21(DE3)
Kind of assay: SPR, SNP mutant SBC immobilized. The assay is classed as binding. Particulars: for SPR KD: source data of Table 3, R96Q. How it is done: (§2) Protein expression was induced with isopropyl β-d-1-thiogalactopyranoside at 18 °C for 12 h. […] SBC was finally purified by size-exclusion chromatography on a Superdex 75 16/600 column (GE Healthcare) in 25 mM HEPES, pH 7.5, 250 mM NaCl and 10 mM DTT.
as §1

The target of assay [4] is T3, SBC with SOCS2 L106V (Homo sapiens, UniProt O14508+Q15369+Q15370, L106V).
T3 construct: His6 (N, cleaved yes); made in house; host or cells: E. coli BL21(DE3)
Kind of assay: SPR, SNP mutant SBC immobilized. It counts as binding. The note with it: read-out: SPR dissociation constant KD. On the procedure: as §2, §1

Assay [5] deals with T4, SBC with SOCS2 N94D (Homo sapiens, UniProt O14508+Q15369+Q15370, N94D).
T4 construct: His6 (N, cleaved yes); made in house; host or cells: E. coli BL21(DE3)
The assay can be described thus: SPR, SNP mutant SBC immobilized. The assay is classed as binding. The note with it: source data of Table 3, N94D. How it is done:
as §2, §1

Assay [6] addresses T5, SBC with SOCS2 R96L (Homo sapiens, UniProt O14508+Q15369+Q15370, R96L).
T5 construct: His6 (N, cleaved yes); made in house; host or cells: E. coli BL21(DE3)
The assay can be described thus: SPR, SNP mutant SBC immobilized. The assay is classed as binding. The note with it: for SPR KD: source data of Table 3, R96L. On the procedure:
as §2, §1

The target in assay [7] is T6, SOCS2-EloB-EloC ternary (SBC) complex (Homo sapiens, UniProt O14508+Q15369+Q15370).
T6 construct: His6 (N, cleaved yes); made in house; host or cells: E. coli BL21(DE3)
Kind of assay: Isothermal titration calorimetry (ITC), ligand titrated into SBC. The assay is classed as binding. On the procedure:
The ITC titration consisted of 0.4 μl initial injection (discarded during data analysis) followed by 19 of 2 μl injections at 120 s interval between injections. […] Binding data was subtracted from a control titration where peptide was titrated into buffer, and fitted using a one-set-of-site binding model to obtain dissociation constants, binding enthalpy (ΔH), and stoichiometry (N) using MicroCal ITC-ORIGIN Analysis Software 7.0 (Malvern).

Setting [8] is: Table 2, biotinylated wild-type SBC immobilized, peptide 0.08-60 μM, 20 mM HEPES pH7.5, 150 mM NaCl, 1 mM TCEP, 0.005% Tween20, 10 °C, steady-state 1:1 model, read-out: SPR KD.
Setting [9] is: read-out: SPR dissociation constant KD.

Read-outs that look alike come from different tables or passages of the source. Where a SMILES comes first, the peptide text is derived from it. [ ]: non-standard residue; d: D form. pY = N[C@@H](Cc1ccc(OP(=O)(O)O)cc1)C(=O)O

T2 sequence (O14508 32-198 R96Q): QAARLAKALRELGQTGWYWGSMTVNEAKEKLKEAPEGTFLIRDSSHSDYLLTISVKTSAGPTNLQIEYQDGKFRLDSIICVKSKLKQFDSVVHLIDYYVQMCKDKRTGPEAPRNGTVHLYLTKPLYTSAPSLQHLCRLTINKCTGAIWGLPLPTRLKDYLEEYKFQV
T2 sequence (Q15370 1-104 partner limits assumed): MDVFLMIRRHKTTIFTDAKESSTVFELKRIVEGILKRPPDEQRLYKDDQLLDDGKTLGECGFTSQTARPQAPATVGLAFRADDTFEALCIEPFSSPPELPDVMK
T2 sequence (Q15369 17-112 partner limits assumed): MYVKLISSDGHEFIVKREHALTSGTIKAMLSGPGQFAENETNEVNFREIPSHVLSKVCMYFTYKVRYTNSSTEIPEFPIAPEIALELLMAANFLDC
T4 sequence (O14508 32-198 N94D): as the sequence (O14508 32-198 R96Q) above, with N63D, Q65R counted along it
T4 sequence (Q15370 1-104 partner limits assumed): as the sequence (Q15370 1-104 partner limits assumed) above
T4 sequence (Q15369 17-112 partner limits assumed): as the sequence (Q15369 17-112 partner limits assumed) above
Sequence of SBC (SOCS2-ElonginB-ElonginC) (O14508 32-198): as the sequence (O14508 32-198 R96Q) above, with Q65R counted along it
Sequence of SBC (SOCS2-ElonginB-ElonginC) (Q15370 1-104 partner limits assumed): as the sequence (Q15370 1-104 partner limits assumed) above
Sequence of SBC (SOCS2-ElonginB-ElonginC) (Q15369 17-112 partner limits assumed): as the sequence (Q15369 17-112 partner limits assumed) above
T1 sequence (O14508 32-198): as the sequence (O14508 32-198 R96Q) above, with Q65R counted along it
T1 sequence (Q15370 1-104 partner limits assumed): as the sequence (Q15370 1-104 partner limits assumed) above
T1 sequence (Q15369 17-112 partner limits assumed): as the sequence (Q15369 17-112 partner limits assumed) above
T5 sequence (O14508 32-198 R96L): as the sequence (O14508 32-198 R96Q) above, with Q65L counted along it
T5 sequence (Q15370 1-104 partner limits assumed): as the sequence (Q15370 1-104 partner limits assumed) above
T5 sequence (Q15369 17-112 partner limits assumed): as the sequence (Q15369 17-112 partner limits assumed) above
T6 sequence (O14508 32-198): as the sequence (O14508 32-198 R96Q) above, with Q65R counted along it
T6 sequence (Q15370 1-104 partner limits assumed): as the sequence (Q15370 1-104 partner limits assumed) above
T6 sequence (Q15369 17-112 partner limits assumed): as the sequence (Q15369 17-112 partner limits assumed) above
T3 sequence (O14508 32-198 L106V): as the sequence (O14508 32-198 R96Q) above, with Q65R, L75V counted along it
T3 sequence (Q15370 1-104 partner limits assumed): as the sequence (Q15370 1-104 partner limits assumed) above
T3 sequence (Q15369 17-112 partner limits assumed): as the sequence (Q15369 17-112 partner limits assumed) above

Turning to `CC[C@H](C)[C@H](NC(=O)[C@H](C)NC(=O)[C@@H](NC(=O)[C@H](CO)NC(=O)[C@@H](NC(=O)[C@H](Cc1ccc(OP(=O)(O)O)cc1)NC(=O)[C@H](CC(=O)O)NC(=O)[C@@H]1CCCN1C(=O)[C@@H](NC(=O)[C@@H]1CCCN1)C(C)C)[C@@H](C)O)[C@@H](C)CC)C(=O)N[C@H](C(N)=O)C(C)C` [PVPDpYTSIAIV] (H-PVPD[pY]TSIAIV-NH2), in assay [1] (setting [8]), the dissociation constant Kd stood at 6.7 ± 0.78 µM.

In turn, `CC[C@H](C)[C@H](NC(=O)[C@H](CO)NC(=O)[C@@H](NC(=O)[C@H](Cc1ccc(OP(=O)(O)O)cc1)NC(=O)[C@H](CC(=O)O)NC(=O)[C@@H]1CCCN1C(=O)[C@H](C)NC(=O)[C@@H]1CCCN1)[C@@H](C)O)C(=O)N[C@@H](Cc1c[nH]cn1)C(=O)N[C@H](C(=O)N[C@H](C(N)=O)C(C)C)[C@@H](C)CC` [PAPDpYTSIHIV] showed a Ki in assay [2] of 3.4 ± 0.25 µM.

In assay [2], `CC[C@H](C)[C@H](NC(=O)[C@H](CO)NC(=O)[C@@H](NC(=O)[C@H](Cc1ccc(OP(=O)(O)O)cc1)NC(=O)[C@H](CC(=O)O)NC(=O)[C@@H]1CCCN1C(=O)[C@@H](NC(=O)[C@H](C)N)C(C)C)[C@@H](C)O)C(=O)N[C@@H](Cc1c[nH]cn1)C(=O)N[C@H](C(=O)N[C@H](C(N)=O)C(C)C)[C@@H](C)CC` [AVPDpYTSIHIV] displayed a Ki of 0.9 ± 0.17 µM.

As to `CC[C@H](C)[C@H](NC(=O)[C@H](CC(=O)O)NC(=O)[C@H](CO)NC(=O)[C@@H](NC(=O)[C@H](CCC(N)=O)NC(=O)[C@H](C)NC(=O)[C@H](Cc1ccc(OP(=O)(O)O)cc1)NC(=O)[C@H](Cc1ccccc1)NC(=O)[C@H](CC(=O)O)NC(=O)[C@@H](NC(=O)[C@@H](N)CC(N)=O)[C@@H](C)CC)C(C)C)C(N)=O` [GHR_pY487] (H-NIDF[pY]AQVSDI-NH2), the Kd is 5.1 ± 0.77 µM in assay [1] (Table 3, wild-type SOCS2 (SBC), 10 °C, read-out: SPR dissociation constant KD); more than 60 µM in assay [3] (setting [9]); 8.9 ± 0.7 µM in assay [4]; more than 60 µM in assay [6] (setting [9]); 2.3 µM in assay [7]. Moreover, the “SPR KD” value was “nb” in assay [3] (replicate 1); “nb” in assay [3] (replicate 2); “nb” in assay [3] (replicate 3); “nb” in assay [3] (replicate 4); “weak” in assay [5] (replicate 1); “weak” in assay [5] (replicate 2). For the same molecule, the “SPR KD” value in assay [5] (replicate 3), in assay [5] (replicate 4), in assay [6] (replicate 1), in assay [6] (replicate 2), in assay [6] (replicate 3) and in assay [6] (replicate 4) was “weak” throughout.

For the molecule `CC[C@H](C)[C@H](NC(=O)[C@@H](NC(=O)[C@H](Cc1ccc(OP(=O)(O)O)cc1)NC(=O)[C@H](C)NC(=O)[C@H](Cc1ccccc1)NC(=O)[C@H](CO)NC(=O)[C@H](C)N)[C@@H](C)O)C(=O)N[C@@H](CC(C)C)C(=O)N[C@@H](CC(=O)O)C(=O)N1CCC[C@H]1C(=O)N[C@@H](CO)C(N)=O` [ASFApYTILDPS] (H-ASFA[pY]TILDPS-NH2), the Kd in assay [1] (setting [8]) is 21.7 ± 1.49 µM.

Turning to `CC[C@H](C)[C@H](NC(=O)[C@H](Cc1c[nH]cn1)NC(=O)[C@H](C)NC(=O)[C@H](CO)NC(=O)[C@@H](NC(=O)[C@H](Cc1ccc(OP(=O)(O)O)cc1)NC(=O)[C@H](CC(=O)O)NC(=O)[C@@H]1CCCN1C(=O)[C@@H](NC(=O)[C@@H]1CCCN1)C(C)C)[C@@H](C)O)C(=O)N[C@H](C(N)=O)C(C)C` [PVPDpYTSAHIV] (H-PVPD[pY]TSAHIV-NH2), in assay [2], the affinity, expressed as Ki, was 3.4 ± 0.66 µM.

For the molecule `CC[C@H](C)[C@H](NC(=O)[C@@H](NC(=O)[C@H](Cc1ccc(OP(=O)(O)O)cc1)NC(=O)[C@H](CCC(=O)O)NC(=O)[C@H](Cc1ccccc1)NC(=O)[C@H](CO)NC(=O)[C@H](C)N)[C@@H](C)O)C(=O)N[C@@H](CC(C)C)C(=O)N[C@@H](C)C(=O)N1CCC[C@H]1C(=O)N[C@@H](CO)C(N)=O` [ASFEpYTILAPS] (H-ASFE[pY]TILAPS-NH2), the Kd in assay [1] (setting [8]) is 18 ± 0.91 µM. Besides, the inhibitory constant (Ki) in assay [2] came out at 14.1 ± 1.74 µM.

Regarding `CC[C@H](C)[C@H](NC(=O)[C@H](CO)NC(=O)[C@H](C)NC(=O)[C@H](Cc1ccc(OP(=O)(O)O)cc1)NC(=O)[C@H](CC(=O)O)NC(=O)[C@@H]1CCCN1C(=O)[C@@H](NC(=O)[C@@H]1CCCN1)C(C)C)C(=O)N[C@@H](Cc1c[nH]cn1)C(=O)N[C@H](C(=O)N[C@H](C(N)=O)C(C)C)[C@@H](C)CC` [PVPDpYASIHIV] (H-PVPD[pY]ASIHIV-NH2), the dissociation constant (Kd) in assay [1] (setting [8]) is 1 ± 0.09 µM. Affinity in assay [2] was put at a Ki of 0.5 ± 0.07 µM.

With `CC(C)C[C@H](NC(=O)[C@H](C)NC(=O)[C@@H](NC(=O)[C@H](Cc1ccc(OP(=O)(O)O)cc1)NC(=O)[C@H](CCC(=O)O)NC(=O)[C@H](Cc1ccccc1)NC(=O)[C@H](CO)NC(=O)[C@H](C)N)[C@@H](C)O)C(=O)N[C@@H](CC(=O)O)C(=O)N1CCC[C@H]1C(=O)N[C@@H](CO)C(N)=O` [ASFEpYTALDPS] (H-ASFE[pY]TALDPS-NH2), the Ki in assay [2] is 17.2 ± 0.89 µM.

With `CC[C@H](C)[C@H](NC(=O)[C@H](Cc1c[nH]cn1)NC(=O)[C@@H](NC(=O)[C@H](CO)NC(=O)[C@@H](NC(=O)[C@H](Cc1ccc(OP(=O)(O)O)cc1)NC(=O)[C@H](CC(=O)O)NC(=O)[C@@H]1CCCN1C(=O)[C@@H](NC(=O)[C@@H]1CCCN1)C(C)C)[C@@H](C)O)[C@@H](C)CC)C(=O)N[C@@H](C)C(N)=O` [PVPDpYTSIHIA], in assay [1] (setting [8]), the dissociation constant (Kd) amounted to 1.9 ± 0.09 µM.

`CC[C@H](C)[C@H](NC(=O)[C@@H](NC(=O)[C@H](Cc1ccc(OP(=O)(O)O)cc1)NC(=O)[C@H](CCC(=O)O)NC(=O)[C@H](Cc1ccccc1)NC(=O)[C@H](CO)NC(=O)[C@H](C)N)[C@@H](C)O)C(=O)N[C@@H](CC(C)C)C(=O)N[C@@H](CC(=O)O)C(=O)N[C@@H](C)C(=O)N[C@@H](CO)C(N)=O` [ASFEpYTILDAS] (H-ASFE[pY]TILDAS-NH2): the equilibrium dissociation constant (Kd) in assay [1] (setting [8]) stood at 8.9 ± 1.25 µM. The molecule also showed a Ki in assay [2] of 6.9 ± 1.39 µM.

Regarding `CC[C@H](C)[C@H](NC(=O)[C@H](CO)NC(=O)[C@@H](NC(=O)[C@H](Cc1ccc(OP(=O)(O)O)cc1)NC(=O)[C@H](CC(=O)O)NC(=O)[C@@H]1CCCN1C(=O)[C@H](Cc1ccc(O)cc1)NC(=O)[C@@H]1CCCN1)[C@@H](C)O)C(=O)N[C@@H](Cc1c[nH]cn1)C(=O)N[C@H](C(=O)N[C@H](C(N)=O)C(C)C)[C@@H](C)CC` [V(−3)Y] (H-PYPD[pY]TSIHIV-NH2), the equilibrium dissociation constant (Kd) in assay [1] (setting [8]) is 3.3 ± 0.13 µM. Moreover, in assay [2], the inhibition constant Ki was 3.3 ± 0.24 µM.

As for `CC[C@H](C)[C@H](NC(=O)[C@H](CO)NC(=O)[C@@H](NC(=O)[C@H](Cc1ccc(OP(=O)(O)O)cc1)NC(=O)[C@H](CC(=O)O)NC(=O)[C@@H]1CCCN1C(=O)[C@H](CCCNC(=N)N)NC(=O)[C@@H]1CCCN1)[C@@H](C)O)C(=O)N[C@@H](Cc1c[nH]cn1)C(=O)N[C@H](C(=O)N[C@H](C(N)=O)C(C)C)[C@@H](C)CC` [V(−3)R] (H-PRPD[pY]TSIHIV-NH2), the Kd in assay [1] (setting [8]) stood at 9 ± 1.05 µM.
